Measurements published in US6875743B1, “Cell adhesion inhibitors” (Biogen, Inc., priority 1996, dated 2005).
Numbered stars: 1 amine (or outer) side, 2 acyl side, 3 side chain; on linkers, the order of the positions; unused ones are H or OH. Square brackets hold non-standard residues; d marks the D form. Peptide text beside a SMILES is read from it. * marks the point of attachment. Quinaldoyl = O=C(c1ccc2ccccc2n1)*; X1 = O=C(Cc1ccc(N[*:1])cc1)[*:2]; NH(2-Me-phenyl) = Cc1ccccc1N*; Tic = O=C(O)[CH]1Cc2ccccc2CN1; Cha = N[CH](CC1CCCCC1)C(=O)O; Chg = N[CH](C(=O)O)C1CCCCC1; Nva = CCC[CH](N)C(=O)O; PhAc = O=C(Cc1ccccc1)*; Aib = CC(C)(N)C(=O)O; CO = O=C([*:1])[*:2]; Bz = O=C(c1ccccc1)*; NHPh = c1ccc(N*)cc1

Target: T1, VLA4 (Homo sapiens, UniProt P05556+P13612)
T1 construct: endogenous in cells; host or cells: Ramos cells
T1 sequence (P13612 34-1032): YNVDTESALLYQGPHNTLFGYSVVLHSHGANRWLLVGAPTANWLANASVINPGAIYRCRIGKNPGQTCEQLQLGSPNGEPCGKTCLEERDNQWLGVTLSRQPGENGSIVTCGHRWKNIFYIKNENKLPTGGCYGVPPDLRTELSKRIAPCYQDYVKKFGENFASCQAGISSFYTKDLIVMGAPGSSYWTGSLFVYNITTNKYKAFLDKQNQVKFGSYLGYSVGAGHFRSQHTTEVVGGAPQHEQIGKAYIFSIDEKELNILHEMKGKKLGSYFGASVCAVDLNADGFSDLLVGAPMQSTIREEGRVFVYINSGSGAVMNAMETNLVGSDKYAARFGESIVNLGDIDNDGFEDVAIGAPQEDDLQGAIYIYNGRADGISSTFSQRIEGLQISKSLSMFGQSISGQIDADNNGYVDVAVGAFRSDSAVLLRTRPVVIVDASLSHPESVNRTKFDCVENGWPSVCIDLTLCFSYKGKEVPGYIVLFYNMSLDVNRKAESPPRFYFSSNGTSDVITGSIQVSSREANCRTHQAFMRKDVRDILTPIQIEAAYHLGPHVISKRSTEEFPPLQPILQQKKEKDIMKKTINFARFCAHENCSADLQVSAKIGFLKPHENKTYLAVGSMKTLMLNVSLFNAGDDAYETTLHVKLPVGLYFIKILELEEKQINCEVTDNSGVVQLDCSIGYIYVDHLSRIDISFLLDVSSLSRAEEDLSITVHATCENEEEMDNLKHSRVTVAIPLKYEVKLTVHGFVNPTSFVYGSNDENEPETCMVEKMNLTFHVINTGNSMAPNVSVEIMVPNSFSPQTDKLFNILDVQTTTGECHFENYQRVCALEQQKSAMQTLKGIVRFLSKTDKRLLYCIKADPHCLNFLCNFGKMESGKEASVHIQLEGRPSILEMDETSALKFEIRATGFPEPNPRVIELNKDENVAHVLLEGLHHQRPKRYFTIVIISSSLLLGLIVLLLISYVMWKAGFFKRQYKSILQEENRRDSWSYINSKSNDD
T1 sequence (P05556 21-798): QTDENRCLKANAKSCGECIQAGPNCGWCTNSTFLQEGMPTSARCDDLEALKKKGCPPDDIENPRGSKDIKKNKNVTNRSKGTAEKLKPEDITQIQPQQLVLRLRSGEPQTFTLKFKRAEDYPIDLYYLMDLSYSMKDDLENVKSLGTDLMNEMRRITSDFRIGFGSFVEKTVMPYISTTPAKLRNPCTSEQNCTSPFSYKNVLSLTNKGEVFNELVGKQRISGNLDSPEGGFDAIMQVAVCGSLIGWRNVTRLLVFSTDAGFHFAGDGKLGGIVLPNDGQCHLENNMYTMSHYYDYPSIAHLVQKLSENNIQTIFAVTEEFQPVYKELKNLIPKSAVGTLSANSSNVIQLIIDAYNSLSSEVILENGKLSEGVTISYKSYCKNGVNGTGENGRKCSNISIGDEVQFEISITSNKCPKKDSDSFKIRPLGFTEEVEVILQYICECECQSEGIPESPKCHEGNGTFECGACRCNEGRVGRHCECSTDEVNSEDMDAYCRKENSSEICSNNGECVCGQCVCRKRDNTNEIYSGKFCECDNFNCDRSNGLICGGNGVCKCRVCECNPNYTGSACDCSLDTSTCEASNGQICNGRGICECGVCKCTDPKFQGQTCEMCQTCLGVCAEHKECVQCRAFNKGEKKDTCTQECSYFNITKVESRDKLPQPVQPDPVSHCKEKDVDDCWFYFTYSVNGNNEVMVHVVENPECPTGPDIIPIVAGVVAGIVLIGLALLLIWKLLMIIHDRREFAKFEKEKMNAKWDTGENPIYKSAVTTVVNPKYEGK
Test: Inhibition of VLA4-dependent adhesion to BSA-CS1
Format: cell-based
Settings: binding of BCECF-labelled Ramos cells to BSA-CS1 coated wells, 2 mM MnCl2; read-out: IC50
Text: For example, the cell adhesion inhibitory activity of these compounds may be measured by determining the concentration of inhibitor required to block the binding of VLA-4-expressing cells to fibronectin- or CS1-coated plates. In this assay microtiter wells are coated with either fibronectin (containing the CS-1 sequence) or CS-1. If CS-1 is used, it must be conjugated to a carrier protein, such as bovine serum albumin, in order to bind to the wells. Once the wells are coated, varying concentrations of the test compound are then added together with appropriately labelled, VLA-4-expressing cells. Alternatively, the test compound may be added first and allowed to incubate with the coated wells prior to the addition of the cells. The cells are allowed to incubate in the wells for at least 30 minutes. Following incubation, the wells are emptied and washed. Inhibition of binding is measured by quantitating the fluorescence or radioactivity bound to the plate for each of the various concentrations of test compound, as well as for controls containing no test compound.
VLA-4-expressing cells that may be utilized in this assay include Ramos cells, Jurkat cells, A375 melanoma cells, as well as human peripheral blood lymophocytes (PBLs). The cells used in this assay may be fluorescently or radioactively labelled.
This assay was used to assess the potency of VLA4-directed inhibitory compounds of this invention.
We dissolved BSA-SMCC (Pierce Chemical, Rockford, Ill.; Catalog #77115) in H2O at a concentration of 10 mg/mL. [SEQ ID NO:4]: […](“Cys-Tyr-CS1 peptide”), which we synthesized by conventional solid phase chemistry and purified by HPLC, was dissolved in 10 mM HEPES pH 5, 50 mM NaCl and 0.1 mM EDTA also at a concentration of 10 mg/mL. We then mixed 500 μL of BSA-SMCC, 250 μL of Cys-Tyr-CS1 peptide and 75 μL of 1 mM HEPES pH 7.5 and allowed the conjugation reaction to proceed for 30 minutes. We stopped the reaction by adding 1 μL of beta-mercaptoethanol. Samples were analyzed for cross-linking by SDS-PAGE.
We coated the wells of a Linbro titertek polystyrene 96-well flat bottom plate (Flow Laboratories, Maclean, Va.; catalog #76-231-05) with 100 μL of the above-described BSA-CS1 solution diluted to 1 μg/mL in 0.05 M NaHCO3 (15 mM NaHCO3, 35 mM Na2CO3) pH 9.2. Some wells were not coated with CS1 in order to assess non-specific cell binding (NSB). The plate was then incubated overnight at 4° C.
Following this incubation, the contents of the wells were removed by inverting and blotting the plate. All of the wells were then blocked with 100 μL of 1% BSA in PBS, 0.02% NaN3, for a minimum of one hour at room temperature.
Ramos cells are grown, maintained and labelled in RPMI 1640 culture medium containing 1% BSA. Just prior to running the assay, we added 2′,7′-bis-(2-carboxyethyl)-5 (and -6) carboxyfluorescein acetoxymethyl ester (“BCECF-AM”; Molecular Probes Inc., Eugene, Oreg.; catalog #B-1150) to a final concentration of 2 μM to a culture of Ramos cells (4×10^6 cells/mL). We incubated the cells for 20 minutes at 37° C.
Following labelling, the cells were washed twice in assay buffer (24 mM TRIS, 137 mM NaCl, 2.7 mM KCl, pH 7.4, containing 0.1% BSA and 2 mM glucose) to remove any cations originating from the culture medium. The cells were then resuspended in assay buffer to 4×10^6 cells/mL and 2 mM MnCl2 was added to upregulate VLA4 on the surface of the cells.
Immediately prior to running the assay, we removed the BSA blocking solution from the 96-well plates and washed the wells with 100 μL of assay buffer. We then added to each well 25 μL of test cell adhesion inhibitory compound at 2× the final concentration and 25 μL of the labelled Ramos cells. […] Each concentration of compound was tested in triplicate. The compound and cells are allowed to incubate for 30 minutes at room temperature.

Row | IC50 | Structure (SMILES)
1 | < 0.05 µM | Cc1ccccc1NC(=O)Nc1ccc(CC(=O)N[C@H](CC(C)C)C(=O)N[C@@H](CC(=O)O)C(=O)N[C@H](CCC(=O)O)C(N)=O)cc1 [Compound 294]
2 | < 0.05 µM | CSCC[C@H](NC(=O)Cc1ccc(NC(=O)Nc2ccccc2C)cc1)C(=O)N[C@@H](CC(=O)O)C(=O)N[C@@H](Cc1c[nH]c2ccccc12)C(N)=O [Compound 228]
3 | < 0.05 µM | Cc1ccccc1NC(=O)Nc1ccc(CC(=O)N2CCC[C@H]2C(=O)N[C@@H](CC(=O)O)C(=O)N[C@@H](CCC(=O)O)C(N)=O)cc1 [Compound 245]
4 | 0.05 to 10 µM | CC(C)C[C@H](NC(=O)c1coc2c1C(=O)CCC2)C(=O)N[C@@H](CC(=O)O)C(=O)N[C@H](C(=O)O)C(C)C [Compound 371]
5 | > 10 µM | CC(C)C(NC(=O)C(CC(=O)O)NC(=O)C(NC(=O)C1Cc2ccccc2CN1)C1CCCCC1)C(=O)O (centres unmarked) [Compound 84] (H-[Tic][Chg]DV-OH; configuration not given here)
6 | > 10 µM | CC(C)C[C@H](NC(=O)c1c2c(nc3ccccc13)CCCC2)C(=O)N[C@@H](CC(=O)O)C(=O)N[C@H](C(=O)O)C(C)C [Compound 391]
7 | < 0.05 µM | Cc1ccccc1NC(=O)Nc1ccc(CC(=O)N[C@@H](CCC(=O)O)C(=O)N[C@@H](CC(=O)O)C(=O)N[C@@H](CC(=O)O)C(N)=O)cc1 [Compound 263]
8 | 0.05 to 10 µM | CC(C)C[C@@H](NC(=O)Cc1ccc(NC(=O)Nc2ccccc2)cc1)C(=O)N[C@H](CC(=O)O)C(=O)N[C@@H](C(=O)N1CCC[C@@H]1C(N)=O)C(C)C [Compound 212] ({NHPh-CO}-[X1][dL][dD][dV][dP]-NH2)
9 | > 10 µM | CNC(=O)C(C)(C)NC(=O)[C@H](CC(=O)O)NC(=O)[C@H](CC(C)C)NC(=O)Cc1ccccc1 [Compound 351] (PhAc-Leu-Asp-[Aib]-NHMe)
10 | 0.05 to 10 µM | CCC(C)C(NC(=O)C(CC(=O)O)NC(=O)C(CC(C)C)NC(=O)c1ccc2ccccc2n1)C(=O)OC (centres unmarked) [Compound 56]
11 | < 0.05 µM | CSCC[C@H](NC(=O)Cc1ccc(NC(=O)Nc2ccccc2C)cc1)C(=O)N[C@@H](CC(=O)O)C(=O)N[C@H](C(N)=O)C(C)C [Compound 221]
12 | > 10 µM | CCCC(NC(=O)C(CC(=O)O)NC(=O)C(CC(C)C)NC(=O)Cc1ccccc1)C(=O)NC (stereo not drawn) [Compound 51] (PhAc-Leu-Asp-[Nva]-NHMe; configuration not given here)
13 | > 10 µM | Cc1ccccc1NC(=O)Nc1ccc(CC(=O)N[C@H](C(=O)N[C@@H](CC(C)C)C(=O)N2CCC[C@H]2C(=O)N[C@@H](CC(=O)O)C(=O)O)C(C)C)cc1 [Compound 339] ({NH(2-Me-phenyl)-CO}-[X1]VLPD-OH)
14 | > 10 µM | CC(=O)N[C@@H](Cc1ccccc1)C(=O)N[C@@H](CC(C)C)C(=O)N[C@@H](CC(=O)O)C(=O)N[C@H](C(=O)O)C(C)C [Compound 152] (Ac-FLDV-OH)
15 | > 10 µM | CC(C)CC(NC(=O)C1Cc2ccccc2CN1)C(=O)NC(CC(=O)O)C(=O)NC(C(=O)N1CCCC1C(=O)O)C(C)C (centres unmarked) [Compound 33] (H-[Tic]LDVP-OH; configuration not given here)
16 | < 0.05 µM | Cc1ccccc1NC(=O)Nc1ccc(CC(=O)N[C@@H](CC(C)C)C(=O)N[C@@H](CC(=O)O)C(=O)N[C@@H](CC(C)C)C(N)=O)cc1 [Compound 231]
17 | > 10 µM | CC(C)C[C@H](NC(=O)c1cc2ccccc2cn1)C(=O)NC(CC(=O)NO)C(=O)N[C@H](C(=O)O)C(C)C (some centres unmarked) [Compound 6]
18 | < 0.05 µM | CSCC[C@H](NC(=O)Cc1ccc(NC(=O)Nc2ccccc2C)cc1)C(=O)N[C@@H](CC(=O)O)C(=O)N[C@@H](CC(C)C)C(N)=O [Compound 220]
19 | < 0.05 µM | Cc1ccccc1NC(=O)Nc1ccc(CC(=O)N[C@H](CC(C)C)C(=O)N[C@@H](CC(=O)O)C(=O)N[C@H](C(N)=O)[C@@H](C)O)cc1 [Compound 291]

Row | IC50 | Structure (SMILES)
20 | > 10 µM | CC(C)C[C@H](NC(=O)[C@H](Cc1ccccc1)NC(=O)c1ccccc1)C(=O)N[C@@H](CC(=O)O)C(=O)N[C@H](C(=O)O)C(C)C [Compound 153] (Bz-FLDV-OH)
21 | > 10 µM | CSCC[C@H](NC(=O)[C@@H](NC(=O)[C@H](CC(=O)O)NC(=O)[C@H](CC(C)C)NC(=O)c1ccc2ccccc2n1)C(C)C)C(=O)O [Compound 186] (Quinaldoyl-LDVM-OH)
22 | 0.05 to 10 µM | CC(C)C[C@@H](NC(=O)Cc1ccc(NC(=O)Nc2ccccc2)cc1)C(=O)N[C@@H](CC(=O)O)C(=O)N[C@H](C(=O)N1CCC[C@H]1C(N)=O)C(C)C [Compound 209] ({NHPh-CO}-[X1][dL]DVP-NH2)
23 | < 0.05 µM | CSCC[C@H](NC(=O)Cc1ccc(NC(=O)Nc2ccccc2C)cc1)C(=O)N[C@@H](CC(=O)O)C(=O)N[C@H](CC(C)C)C(N)=O [Compound 222]
24 | 0.05 to 10 µM | CC(C)C[C@H](NC(=O)c1csc(-c2cccnc2)n1)C(=O)N[C@@H](CC(=O)O)C(=O)N[C@H](C(=O)O)C(C)C [Compound 375]
25 | 0.05 to 10 µM | Cc1ccccc1NC(=O)Nc1ccc(CC(=O)N2CCC[C@H]2C(=O)N[C@@H](CCC(=O)O)C(=O)N[C@H](CC(C)C)C(=O)O)cc1 [Compound 415]
26 | < 0.05 µM | Cc1ccccc1NC(=O)Nc1ccc(CC(=O)N[C@@H](CCC(=O)O)C(=O)N[C@@H](CC(=O)O)C(=O)N[C@H](CC(C)C)C(N)=O)cc1 [Compound 266]
27 | > 10 µM | CCC(C)C(NC(=O)C(CC(=O)O)NC(=O)C(CC(C)C)NC(=O)Cc1ccccc1)C(=O)NC (stereo not drawn) [Compound 55] (PhAc-Leu-Asp-Ile-NHMe; configuration not given here)
28 | > 10 µM | CC(C)C[C@H](NC(=O)c1ccc2c(c1)CCO2)C(=O)N[C@@H](CC(=O)O)C(=O)N[C@H](C(=O)O)C(C)C [Compound 387]
29 | < 0.05 µM | Cc1ccccc1NC(=O)Nc1ccc(CC(=O)N[C@@H](CCC(=O)O)C(=O)N[C@@H](CC(=O)O)C(=O)N[C@H](C(N)=O)[C@@H](C)O)cc1 [Compound 268]
30 | > 10 µM | CC(C)C(NC(=O)C(CC(=O)O)NC(=O)C(CC1CCCCC1)NC(=O)C1Cc2ccccc2CN1)C(=O)O (centres unmarked) [Compound 86] (H-[Tic][Cha]DV-OH; configuration not given here)
31 | < 0.05 µM | Cc1ccccc1NC(=O)Nc1ccc(CC(=O)N[C@@H](CCC(=O)O)C(=O)N[C@@H](CC(=O)O)C(=O)N[C@@H](CC(C)C)C(N)=O)cc1 [Compound 264]
32 | < 0.05 µM | CSCC[C@H](NC(=O)[C@H](CC(=O)O)NC(=O)[C@@H](CC(C)C)NC(=O)Cc1ccc(NC(=O)Nc2ccccc2C)cc1)C(N)=O [Compound 292]
33 | > 10 µM | CC(C)C[C@H](NC(=O)COc1ccc2ccccc2c1)C(=O)N[C@@H](CC(=O)O)C(=O)N[C@H](C(=O)O)C(C)C [Compound 395]
34 | 0.05 to 10 µM | COC(=O)[C@@H](CC(C)C)NC(=O)[C@H](CC(=O)O)NC(=O)[C@@H]1CCCN1C(=O)Cc1ccc(NC(=O)Nc2ccccc2C)cc1 [Compound 410]
35 | < 0.05 µM | Cc1ccccc1NC(=O)Nc1ccc(CC(=O)N[C@@H](CC(C)C)C(=O)N[C@@H](CC(=O)O)C(=O)N[C@H](CCC(=O)O)C(N)=O)cc1 [Compound 238]
36 | > 10 µM | CC(C)C[C@H](NC(=O)c1csc(-c2ccncc2)n1)C(=O)N[C@@H](CC(=O)O)C(=O)N[C@H](C(=O)O)C(C)C [Compound 376]
37 | > 10 µM | CC(C)C[C@H](NC(=O)c1cncc(C#Cc2ccccc2)c1)C(=O)N[C@@H](CC(=O)O)C(=O)N[C@H](C(=O)O)C(C)C [Compound 372]
38 | < 0.05 µM | Cc1ccccc1NC(=O)Nc1ccc(CC(=O)N[C@H](C(=O)N[C@@H](CC(=O)O)C(=O)N[C@@H](Cc2c[nH]c3ccccc23)C(N)=O)[C@@H](C)O)cc1 [Compound 261]
